Test system: chorioallantoic membrane
Assay: hen's egg test on the chorioallantoic membrane (HET-CAM): protective effect against the irritant 2% sodium dodecylsulfate
Set-up: species or system hen's eggs, American White Leghorn (Shaver Starcross 288)
Details: for protective effect (in words): applied 5 min before 2% sodium dodecylsulfate, compared to distilled water, NaCl 0.05/0.5/1.0%, CaCl2 0.05/0.5/5%, sorbitol 0.01/0.1/1% by weight; for Response (x) after 30 s / Response (x) after 2 min / Response (x) after 5 min: rating 0 (no response) to 7 (coagulation), 0.2 ml aqueous test substance, 5 min later 0.2 ml 2% sodium dodecylsulfate; for Response (x) after 30 s: read after 30 s; for Response (x) after 2 min: read after 2 min; for Response (x) after 5 min: read after 5 min
Description: Evidence of the activity in terms of enhancing the skin's defenses against noxious agents was furnished in a hen's egg test on the chorioallantoic membrane (HET-CAM), an established predictional test for detecting the irritation potency for the skin and mucosa. For testing, eggs of the race “American White Leghorn” ([…] 288) were employed. The eggs were incubated for 9 d (start of incubation=day 1) in a small-size motor incubator having an automatic turning over device and an automatic moisturizing control (type […] GmbH) at 37±1° C. and 65±5% of relative humidity. At day 9, the eggs were transilluminated for detecting fertilization, the non-fertilized eggs were sorted out, the remaining eggs were placed upright with the blunt pole (air bubble) up and incubated for another 24 h without turning over. At day 10, the egg pole was removed with fine scissors and tweezers, and the chorioallantoic membrane exposed. The following items were tested: irritant effect of the combination of active substances and its components protective effect Thus, 0.2 ml each of the aqueous solution of the test substance was applied, and after an interval of 5 min, 0.2 ml of a 2% solution of the irritant sodium dodecylsulfate was applied. The outcome of the response was compared to the effect obtained with water (placebo) according to the following rating: 0 no response 1 hyperemia-slight 2 hyperemia-medium 3 hyperemia-strong 4 hemorrhage-isolated 5 hemorrhage-frequent 6 hemorrhage-massive 7 coagulation […]

With OC[C@@H](O)[C@@H](O)[C@H](O)[C@@H](O)CO [sorbitol] the “protective effect (in words)” value was “did not display any protective effects”.

In the case of N#C[S-].[Na+] [Comp. 2, NaSCN], the “protective effect (in words)” value was “display a skin protective activity”, the “Response (x) after 30 s” value was 2.8 and the “Response (x) after 2 min” value was 3.1. For the same compound, the “Response (x) after 5 min” value was 3.8.

For [Ca+2].[Cl-].[Cl-] [CaCl2, calcium chloride], the “protective effect (in words)” value was “did not display any protective effects”.

[Cl-].[Na+] [NaCl, sodium chloride] was tested, and the “protective effect (in words)” value was “did not display any protective effects”.

For NC(N)=O [Comp. 3, urea], the “protective effect (in words)” value was “display a skin protective activity”, the “Response (x) after 30 s” value was 2.8 and the “Response (x) after 2 min” value was 3.6. For the same compound, the “Response (x) after 5 min” value was 4.0.
